Measured values: patent publication US7906477B2 (Genspera, Inc., priority 2002, dated 2011)
Each block holds one compound with its values, some of them ahead of it. Square brackets hold non-standard residues; d marks the D form. Ends that are not written are not given here. Peptide text beside a SMILES is read from it. Tyr(3-NO2) = N[C@@H](Cc1ccc(O)c([N+](=O)[O-])c1)C(=O)O; Abz = aminobenzoic acid; 2Abz = Nc1ccccc1C(=O)O; Dap = NC[C@H](N)C(=O)O

Legend:
[1] = plasma stability in 50% mouse plasma; assay type: in vitro ADME; conditions: 500 μM; for parent peptide remaining after 3 hours (in words): HPLC
Experimental: (§1) Mouse plasma was obtained from cardiac puncture of anesthetized mice prior to euthanization by CO2 overdose according to protocols approved by the Johns Hopkins Animal Care and Use Committee. Human plasma was obtained from discarded, pooled, and unlabeled clinical samples. Plasma was diluted to 50% in Tris buffer (50 mM Tris-HCl, 100 mM NaCl, pH 7.8). To this, test peptides/prodrugs were added to 250 or 500 μM final concentration. After the incubation period, one volume (200 μl) of acetonitrile was added to precipitate the protein fraction and the tube was centrifuged at 14,000 for 2 min. The supernatant was analyzed by C18-HPLC and the collected peaks were analyzed by MALDI-TOF as described above.
(§2) Arginine-containing peptides are potential substrates for the wide variety of other trypsin-like proteases that are present in the blood and may have residual activity in the blood. The plasma stability of an hK2 peptide substrate may therefore be limited and this would have significant consequences related to the development of an hK2 activated prodrug. Therefore, two fluorescence quenched hK2 peptide substrates peptides were incubated in 50% mouse or human plasma (diluted in PBS buffer) to determine stability using a plate-reader. As observed with arginine containing peptides from the SPOT analysis above, none of the arginine-containing, fluorescence quenched hK2peptide substrates were stable in human or mouse plasma. Fluorescence-quenched Y′GKAFRR-Dap-GK′ (SEQ ID NO:42) and Y′GKAFRRLGK′ (SEQ ID NO:21) (500 μM each) were hydrolyzed when incubated in 50% mouse or human plasma (FIG. 7). Mouse plasma degraded the peptides faster than human plasma (FIG. 7). […] In human plasma, more peptide remained after 3 hours (˜25%). […] The proteolytic activity from plasma was never affected by repeated freeze-thaw cycles or by storage of the mouse plasma alone at room temperature for several days.

hK2 = target: T1, hK2 (Homo sapiens, UniProt P20151); experiment: hK2 mediated hydrolysis of peptide substrates in solution (fluorescence); assay type: biochemical; conditions: for digestion by hK2 of arginine-free peptides (in words): in solution, even after prolonged incubation; for hK2 mediated hydrolysis (in words, FIG. 2): substrates 250 μM, 8 μg/ml hK2 in PBS buffer
T1 construct: made in house
Experimental: FIG. 2 depicts a graph of hK2 mediated hydrolysis of peptide substrates identified through the screening of a random peptide library [Y′GKARAF-Dap-FK′ (SEQ ID NO:36), Y′GKAKPR-Dap-FK′ (SEQ ID NO:37), Y′GKAFRR-Dap-FK′ (SEQ ID NO:38), Y′GKAMRQ-Dap-FK′ (SEQ ID NO:39) and Y′GSKGHFKL-Dap-F-K′ (SEQ ID NO:40)]. Substrates (250 μM) were incubated with 8 μg/ml hK2 in PBS buffer. Hydrolysis of peptide results in increased fluorescence, as measured using a 96 well fluorometer. […] To determine 100% digestion, trypsin was added (50 mg/ml) and samples were incubated to 37° C. for 30 min and the fluorescence was determined. The percentage digested is determined by dividing fluorescence units of sample by fluorescence units of control fully digested peptide.
A mutant form of hK2 was utilized in which the amino acids −5 to −1 of the propeptide sequence of hK2 (i.e. Leu-Ile-Gln-Ser-Arg; SEQ ID NO:15) were mutated to Asp-Asp-Asp-Asp-Lys (SEQ ID NO:16) to generate a pro-hK2 protein that can be activated to functional hK2 by […] (Lovgren, J. et al. (1999) Eur. J. Biochem. 266:1050-1055). Compared with wild-type hK2, expression of the propeptide hK2 mutant increases the expression levels up to 15-40-fold (Lovgren, J. et al. (1999) Eur. J. Biochem. 266:1050-1055). The generation and characteristics of this mutant hK2 have been previously described (Lovgren, J. et al. (1999) Eur. J. Biochem. 266:1050-1055).
For validation of the Edman results, peptides were re-synthesized using a Rainin PS3 peptide synthesizer with HBTU/NMM activation. Peptides were synthesized on PEGA resin for on-bead analysis or on Fmoc-Lys(Mtt)-Wang resin for solution assays. The Fmoc-Lys(Mtt)-Wang resin was first deprotected with 2% TFA in DCM (3×2 min). The ε-amine of lysine was then acylated with Boc-Abz. Deprotection/cleavage was performed in TFA/TIS/water (95:2.5:2.5 v/v) for 2-3 hours. Peptides were ether precipitated, dried and purified by C18-HPLC using a linear gradient of acetonitrile (0.1% TFA), lyophilized and dissolved in DMSO. Peptide identities were confirmed by analysis on a Perseptive Voyager DE-STR MALDI-TOF using dihydroxy benzoic acid as a matrix. Fluorescence measurements were performed on a Fluoroskan II 96-well plate reader (ICN biomedicals, Costa Mesa, Calif.; excitation, 355 nm; emission, 460 nm). Kinetic parameters were calculated as described earlier (Denmeade, S. R. et al. (1997) Cancer Res. 57:4924-4930).
The combinatorial screen identified seven arginine-containing peptides. Four of these were re-synthesized (X1-X2-X3=RAF, KPR, FRR and MRQ respectively). Three other lead sequences were not re-synthesized (X1-X2-X3=IQR, FRK and VRQ respectively). All four arginine-containing sequences that were re-synthesized reproduced fluorescence when these peptides were digested on-bead with hK2. For a more quantitative analysis, the fluorescence-quenched peptides were cleaved off the resin and purified by HPLC. The rate of hydrolysis was quantified by measuring increase in fluorescence (Figure). […] In less than five minutes, more than 50% of the peptide was digested (500 μM peptide, 4 μg/ml hK2). For the other peptides, digestion of the same amount of peptide took 19-29 minutes. […] In subsequent studies, hydrolysis rates using the Y′GKAFRR-Dap-F-K′ (SEQ ID NO:38) peptide were analyzed by Lineweaver-Burke reciprocal plots.

[2] = plasma stability in 50% human plasma; assay type: in vitro ADME; conditions: for remaining at 3 h, 500 μM: HPLC, read-out: parent peptide remaining after 3 hours; for degradation after overnight incubation (in words): human plasma
Experimental: FIG. 5 depicts the stability of Ac-GKAFRR-L12ADT (SEQ ID NO:41) in human plasma after a 24 hour incubation, as determined by HPLC analysis. Ac-GKAFRR-L12ADT (SEQ ID NO:41) was incubated in 50% human plasma for 24 hours at room temperature. Peak 1 represents an unidentified plasma contaminant that was also present in control plasma. Peaks 2 and 3 both represent Ac-GKAFRR-L12ADT (SEQ ID NO:41) as confirmed by MALDI-TOF mass spectrometric analysis.
as §1, §2
To determine the plasma stability for the hK2 prodrug, the prodrug was incubated in 50% fresh heparinized (1%) plasma for 24 hours at room temperature, precipitated the proteins by adding one volume of 1% TFA in acetonitrile and analyzed the supernatant by HPLC. Unexpectedly, BPLC analysis after 24 hrs incubation in plasma yielded only a single peak corresponding to the hK2 prodrug (FIG. 5). MALDI-TOF MS of the isolated single peak confirmed the stability of the molecule.

T1 sequence (P20151 25-261): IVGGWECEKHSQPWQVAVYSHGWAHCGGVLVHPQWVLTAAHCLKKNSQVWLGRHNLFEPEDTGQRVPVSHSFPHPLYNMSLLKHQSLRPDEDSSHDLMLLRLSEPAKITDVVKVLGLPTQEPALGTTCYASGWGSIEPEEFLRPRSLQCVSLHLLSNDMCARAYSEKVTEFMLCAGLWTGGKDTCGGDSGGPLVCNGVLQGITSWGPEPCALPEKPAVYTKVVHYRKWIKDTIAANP

Compound: CC(C)C[C@H](NC(=O)[C@H](CCCNC(=N)N)NC(=O)[C@H](CCCNC(=N)N)NC(=O)[C@H](Cc1ccccc1)NC(=O)[C@H](C)NC(=O)[C@H](CCCCN)NC(=O)CNC(=O)[C@@H](N)Cc1ccc(O)c([N+](=O)[O-])c1)C(=O)NCC(=O)N[C@@H](CCCCNC(=O)c1ccccc1N)C(=O)O [Y′GKAFRRLGK′] (H-[Tyr(3-NO2)]GKAFRRLGK(2Abz)-OH)
relative stability of the peptides (in words) [1]: less stable than the Dap containing peptide
parent peptide remaining after 3 hours (in words) [1]: almost no parent peptide remained
hK2 hydrolysis rate after substitution of Dap-F with Leu-Gly (in words) (hK2; compare FIG. 2 with FIG. 8): only a modest decrease in hydrolysis rate
relative stability of the peptides (in words) ([2]; 50% human plasma, 500 μM): less stable than the Dap containing peptide
remaining at 3 h, 500 μM ([2]; 50% human plasma, 500 μM): ~25%
degradation after overnight incubation (in words) [2]: complete degradation

Compound: C[C@H](NC(=O)[C@H](CCCCN)NC(=O)CNC(=O)[C@@H](N)Cc1ccc(O)c([N+](=O)[O-])c1)C(=O)N[C@@H](Cc1ccccc1)C(=O)N[C@@H](CCCNC(=N)N)C(=O)N[C@@H](CCCNC(=N)N)C(=O)N[C@@H](CN)C(=O)NCC(=O)N[C@@H](CCCCNC(=O)c1ccccc1N)C(=O)O [Y′GKAFRR-Dap-GK′] (H-[Tyr(3-NO2)]GKAFRR[Dap]GK(2Abz)-OH; N-terminus assumed)
parent peptide remaining after 3 hours (in words) [1]: almost no parent peptide remained
remaining at 3 h, 500 μM ([2]; 50% human plasma, 500 μM): ~25%
degradation after overnight incubation (in words) [2]: complete degradation

Compound: Y′GSKGPFKL-Dap-K′: arginine-free fluorescence-quenched peptide derivative ([Tyr(3-NO2)]GSKGPFKL[Dap]K(Abz))
digestion by hK2 of arginine-free peptides (in words) (hK2): none of these three arginine free peptides were digested by hK2

Compound: Y′GSKGHFKL-Dap-K′: arginine-free fluorescence-quenched peptide, P1 lysine ([Tyr(3-NO2)]GSKGHFKL[Dap]K(Abz))
digestion by hK2 of arginine-free peptides (in words) (hK2): none of these three arginine free peptides were digested by hK2

Compound: C[C@H](NC(=O)[C@H](CCCCN)NC(=O)CNC(=O)[C@@H](N)Cc1ccc(O)c([N+](=O)[O-])c1)C(=O)N[C@@H](Cc1ccccc1)C(=O)N[C@@H](CCCNC(=N)N)C(=O)N[C@@H](CCCNC(=N)N)C(=O)N[C@@H](CN)C(=O)N[C@@H](Cc1ccccc1)C(=O)N[C@@H](CCCCNC(=O)c1ccccc1N)C(=O)O [Y′GKAFRR-Dap-F-K′] (H-[Tyr(3-NO2)]GKAFRR[Dap]FK(2Abz)-OH; N-terminus assumed)
maximum digestion (hK2; 500 μM peptide, 4 μg/ml hK2): 70-75%
time in which more than 50% of the peptide was digested (hK2; 500 μM peptide, 4 μg/ml hK2): less than five
time to reach maximum digestion (hK2; 500 μM peptide, 4 μg/ml hK2): less than 15 minutes
hK2 mediated hydrolysis (in words, FIG. 2) (hK2): by far exceeded all other substrates

hK2 mediated hydrolysis (in words, FIG. 2) (hK2): did not show any hydrolysis
Compound: Y′GSKGHFKL-Dap-F-K′: fluorescence-quenched substrate without arginine ([Tyr(3-NO2)]GSKGHFKL[Dap]FK(Abz))

Compound: Y′GSKGHFHL-Dap-K′: arginine-free fluorescence-quenched peptide from SPOT analysis sequence ([Tyr(3-NO2)]GSKGHFHL[Dap]K(Abz))
digestion by hK2 of arginine-free peptides (in words) (hK2): none of these three arginine free peptides were digested by hK2
